6 compounds from ChEMBL document CHEMBL3862040, “Identification, Synthesis, and Biological Evaluation of the Major Human Metabolite of NLRP3 Inflammasome Inhibitor MCC950” (ACS Med Chem Lett, 2016) can be followed below.

Molecules are shown by their SMILES. Bounds are passed on as bounds.

What is called CC50 is the concentration giving 50% cytotoxicity. What is called IC50 is the concentration that gives 50% inhibition.

The nature of data set [1]: Cytotoxicity against human HEK293 cells assessed as decrease in cell viability after 20 hrs by resazurin based fluorescence assay. It counts as toxicity.
Data set [2] can be described thus: Drug metabolism in human liver microsomes assessed as N-((1-hydroxy-1,2,3,5,6,7-hexahydro-s-indacen-4-yl)carbamoyl)-4-(2-hydroxypropan-2-yl)furan-2-sulfonamide formation at 5 uM preincubated for 20 mins followed by NADPH addition measured after 120 mins by HPLC/ESI-SRM-MS/MS analysis. The data set is classed as ADME. The settings on record: 2 h. (Microsomes from liver hold many membrane-bound enzymes, among them those of drug oxidation.)

Data set [3] is described as follows: Cytotoxicity against human HepG2 cells assessed as decrease in cell viability after 20 hrs by resazurin based fluorescence assay. It counts as toxicity. Background: The colour change of resazurin is a common sign of viable cells or microbes.
Data set [4] is described as follows: Drug metabolism in human liver microsomes assessed as R-(+)- N-((1-hydroxy-1,2,3,5,6,7-hexahydro-s-indacen-4-yl)carbamoyl)-4-(2-hydroxypropan-2-yl)furan-2-sulfonamide formation at 5 uM preincubated for 20 mins followed by NADPH addition measured after 120 mins by QTOF-ESI-MS/MS analysis. It counts as ADME. The conditions noted are these: 2 h.
Data set [5] can be described thus: Drug metabolism in human liver microsomes assessed as R-(+)- N-((1-hydroxy-1,2,3,5,6,7-hexahydro-s-indacen-4-yl)carbamoyl)-4-(2-hydroxypropan-2-yl)furan-2-sulfonamide formation at 5 uM preincubated for 20 mins followed by NADPH addition measured after 120 mins by HPLC/ESI-SRM-MS/MS analysis. The data set is classed as ADME. The settings on record: 2 h.
For data set [6], the target named is NACHT, LRR and PYD domains-containing protein 3 (Homo sapiens, UniProt Q96P20). Kind of data set: Inhibition of NLRP3 inflammasome in LPS-stimulated human monocyte derived macrophages assessed as reduction in NLRP3 inflammasome-induced IL-1beta production preincubated for 30 mins followed by NLRP3 stimulation with ATP for 1 hr by ELISA. In general terms: ELISA stands for enzyme-linked immunosorbent assay.

Data set [7] is described as follows: Drug level in human liver microsomes treated with 5 uM MCC950 preincubated for 20 mins followed by NADPH addition measured after 120 mins by HPLC/ESI-SRM-MS/MS analysis. The data set is classed as ADME. The settings on record: 2 h.
Data set [8] can be described thus: Drug level in human liver microsomes treated with 5 uM MCC950 preincubated for 20 mins followed by NADPH addition measured after 120 mins by QTOF-ESI-MS/MS analysis. The settings on record: 2 h. The data set is classed as ADME.

NACHT, LRR and PYD domains-containing protein 3, sequence (Q96P20 whole entry, the tested form may be a part): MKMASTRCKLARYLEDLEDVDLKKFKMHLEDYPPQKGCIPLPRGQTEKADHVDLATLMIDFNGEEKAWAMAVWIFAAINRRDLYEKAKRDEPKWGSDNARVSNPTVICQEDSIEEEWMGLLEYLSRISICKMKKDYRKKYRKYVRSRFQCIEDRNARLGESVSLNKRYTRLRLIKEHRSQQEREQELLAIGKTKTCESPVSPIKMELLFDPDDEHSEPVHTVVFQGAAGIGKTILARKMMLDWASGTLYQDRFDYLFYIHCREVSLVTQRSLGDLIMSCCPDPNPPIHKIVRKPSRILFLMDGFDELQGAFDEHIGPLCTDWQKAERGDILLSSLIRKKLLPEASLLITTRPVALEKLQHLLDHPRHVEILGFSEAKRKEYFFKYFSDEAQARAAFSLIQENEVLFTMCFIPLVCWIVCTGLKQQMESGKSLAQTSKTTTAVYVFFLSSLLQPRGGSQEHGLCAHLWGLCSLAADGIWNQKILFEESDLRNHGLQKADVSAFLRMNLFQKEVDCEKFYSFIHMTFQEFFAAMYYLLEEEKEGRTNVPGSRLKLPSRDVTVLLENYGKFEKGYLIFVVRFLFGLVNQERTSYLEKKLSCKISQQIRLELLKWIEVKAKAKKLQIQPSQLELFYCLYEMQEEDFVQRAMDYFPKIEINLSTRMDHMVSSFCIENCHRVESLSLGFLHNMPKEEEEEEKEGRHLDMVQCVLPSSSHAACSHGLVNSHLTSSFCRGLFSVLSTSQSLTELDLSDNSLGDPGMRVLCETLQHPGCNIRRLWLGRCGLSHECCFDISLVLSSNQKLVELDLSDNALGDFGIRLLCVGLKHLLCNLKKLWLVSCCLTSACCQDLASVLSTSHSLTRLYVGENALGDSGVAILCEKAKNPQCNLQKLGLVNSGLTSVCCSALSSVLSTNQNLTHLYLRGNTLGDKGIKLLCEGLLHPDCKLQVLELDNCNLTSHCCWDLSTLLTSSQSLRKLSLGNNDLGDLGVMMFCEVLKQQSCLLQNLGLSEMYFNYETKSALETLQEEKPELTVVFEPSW

For the compound `CC(C)(O)c1coc(S(=O)(=O)NC(=O)Nc2c3c(cc4c2CCC4)CCC3)c1`, the CC50 at 20 h in data set [1] and in data set [3] was above 62.5 µM in each case. For the same compound, the Drug metabolism entry in data set [2], in data set [4] and in data set [5] was “Metabolite_Detected” each time.
Take `CC(C)(O)c1coc(S(=O)(=O)NC(=O)Nc2c3c(cc4c2CC[C@@H]4O)CCC3)c1`: the IC50 in data set [6] amounted to 6350 nM.
`CC(C)(O)c1coc(S(=O)(=O)NC(=O)Nc2c3c(cc4c2CC(O)C4)CCC3)c1` (centres undefined): the CC50 at 20 h in data set [1] and in data set [3] was above 62.5 µM throughout. The IC50 in data set [6] came to 1830 nM.
As to `CC(C)(O)c1coc(S(=O)(=O)NC(=O)Nc2c3c(cc4c2CC[C@H]4O)CCC3)c1`, the Drug metabolism result in data set [7] and in data set [8] was “Metabolite_Detected” throughout. For the same compound, in data set [6], the IC50 is 1240 nM.
For `CC(C)(O)c1coc(S(=O)(=O)NC(=O)Nc2c3c(cc4c2C(O)CC4)CCC3)c1` (racemic), the CC50 at 20 h in data set [1] and in data set [3] was above 62.5 µM in each case. Besides, the half-maximal inhibitory concentration (IC50) in data set [6] stood at 232 nM.
In the case of `CC(C)(O)c1coc(S(=O)(=O)NC(=O)Nc2c3c(cc4c2CCC4O)CCC3)c1` (racemic), the Drug metabolism result in data set [7] is on record as “Metabolite_Detected”. Besides, the CC50 at 20 h in data set [1] and in data set [3] was above 62.5 µM in each case. The IC50 in data set [6] is 1970 nM.
